Data as given in patent publication US20190071416A1, “COMPOUNDS FOR TREATMENT OF CANCER AND EPIGENETICS” (Agency For Science, Technology and Research, priority 2015, published 2019).

Key:
HCT-116 = assay: Cell proliferation assay (CellTiter-Glo), HCT-116; type: cell-based; settings: Homo sapiens, HCT-116, 72 h; 3 days
Description: (§1) The cell proliferation assays were tested in several cell lines, including HepG2,HCT116, A549, HPAF-II, CFPAC-1,HuH7, SNU398,Hep3B, and HEK293. All cell lines are from ATCC. HepG2, HPAF-II and HEK293 are cultured in Eagle's MEM media supplemented with fetal bovine serum. HCT116 is cultured in McCoy media supplemented with fetal bovine serum. Huh-7 is cultured in DMEM low glucose (1000 mg/L glucose) with 10% FBS, 1% L-Glutamate and 1% Penicillin/Streptomycin. SNU398 is cultured in RPMI with 10% FBS with 1% L-Glutamate and 1% Penicillin/Streptomycin. Hep3B is cultured in Eagle's MEM with 10% FBS, 1% L-Glutamate and 1% Penicillin/Streptomycin. A549 is cultured in RPMI media supplemented with fetal bovine serum while CFPAC-1 is cultured in IMDM media supplemented with fetal bovine serum. All media and serum are purchased from Gibco (Lifetech). All cells were grown in a temperature controlled incubator at 37° C. and 5% CO2.
(§2) Cell proliferation assay was performed using CellTiter-Glo Luminescent Cell Viability Assay (Promega) following manufacturer's instructions. The cell-line of interest was treated with compounds that were serial diluted in its respective media. Plates were incubated for 3 days at 37° C. in 5% CO2. After 3 days, an equal volume of Cell Titer Glo reagent was added. Plates were rocked on a rotator for 2 h. 100 μL of each well were transferred to a 96-well opaque plate, and luminescence emitted was measured with the Tecan Safire II.

A549 = assay: Cell proliferation assay (CellTiter-Glo), A549; type: cell-based; settings: Homo sapiens, A549, 72 h; 3 days
Description: as §1, §2

[1] = test system: MAP3K2 methylation (me2/me3-Lys 260); assay: SMYD3 mediated methylation of MAP3K2 in HEK293 cells (Western blot); type: cell-based, Human; settings: 25 μM
Description: (§3) The cells were seeded in 6 well plates. After seeding for 24 h, the cells were treated with either DMSO or 25 μM compound and incubated for 24 hr. The cells were trypsinized and the lysate was extracted with RIPA buffer (Santa Cruz). The total protein concentration of lysate is quantified using the standard Bradford assay (Biorad protein assay, microplate standard assay).
Western blot analysis for detecting methylated MAP3K2 was carried out using a customized Anti-me2/me3-Lys 260 MAP3K2 at 1:500 and the total MAP3K2 was detected using Anti-MEKK2 (AB33918) using a 1:10,000 dilution.
B019 was further tested for its ability to inhibit SMYD3 in cells through its effects on cellular MAP3K2 methylation. This was performed using an antibody against the MAP3K2 (me2/me3), Anti-ME2/ME3-K260-MAP3K2 (1:500) and total MAP3K2, Anti-MEKK2 #ab33918 (1:10,000).

SMYD3 = target: T1, SMYD3 (Homo sapiens, UniProt Q9H7B4); assay: Target engagement assay, SMYD3 levels by Western blot in HEK293 cells transfected with Myc-SMYD3; type: cell-based; parameters: host or cells: HEK293 (ATCC); settings: 25 μM, overnight, HEK293 transiently transfected with Myc-tagged SMYD3
T1 sequence (Q9H7B4 1-428): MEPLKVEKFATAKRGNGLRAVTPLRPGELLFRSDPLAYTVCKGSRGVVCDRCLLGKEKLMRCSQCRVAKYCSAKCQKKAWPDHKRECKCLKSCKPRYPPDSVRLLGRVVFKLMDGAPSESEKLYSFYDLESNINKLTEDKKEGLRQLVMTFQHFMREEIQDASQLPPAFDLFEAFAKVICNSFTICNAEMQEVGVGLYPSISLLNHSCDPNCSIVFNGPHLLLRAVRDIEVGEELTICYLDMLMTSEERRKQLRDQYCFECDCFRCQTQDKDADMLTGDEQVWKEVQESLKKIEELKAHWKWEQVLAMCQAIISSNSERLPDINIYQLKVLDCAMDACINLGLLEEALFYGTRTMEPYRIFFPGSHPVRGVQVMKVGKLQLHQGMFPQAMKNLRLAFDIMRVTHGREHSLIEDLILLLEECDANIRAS
Description: The target engagement assay was performed with HEK293 that is engineered to overexpress SMYD3 (HEK293-SMYD3). The plasmid SMYD3 (Myc-DDK-tagged-Human SET and MYND domain containing 3) was purchased from Origene (RC230064) and transfected with lipofectamine 2000 (Invitrogen) into HEK293 (ATCC). The cell line is cultured in Eagle's MEM media supplemented with fetal bovine serum and geneticin (Invitrogen). Presence of over-expressed SMYD3 is confirmed with western blot with antibody against SMYD3 and the MYC tag as well as with RT-PCR with SMYD3 primers.
as §3
Western blot analysis was performed using antibody against SMYD3 in HEK293 cells over-expressing SMYD3 (HEK293-SMYD3) treated with compound at different time points. 15.0 μg of cell lysate was diluted in 2× Laemmli sample buffer (Bio-Rad) and boiled at 100° C. on heat block for 5 min. Lysates were separated using NuPAGE® 4-12% Bis-Tris precast polyacrylamide gels (Lifetech) at 200 V, […] for 40 min. […]

CCCOC(=O)N1CCN(C(=O)c2ccc3c(Cl)cc(-c4ccccc4)nc3c2)C[C@H]1C [B019, Propyl (R)-4-(4-chloro-2-phenylquinoline-7-carbonyl)-2-methylpiperazine-1-carboxylate]
GI50 (HCT-116): 17.9 µM | GI50 (A549): 28.8 µM | inhibition of methylation of MAP3K2 in cells [1]: inhibited | total MAP3K2 levels [1]: without changing | reduction in SMYD3 levels (SMYD3): 35-37%
